Source: patent US6310095A, “Inhibitors of protein isoprenyl transferases” (University of Pittsburgh, priority 1998, dated 2001)
Where a name gives a salt, the structure may show the parent alone.

target: T1, protein farnesyltransferase (Rattus norvegicus, UniProt Q02293+Q04631); experiment: in vitro inhibition of protein farnesyltransferase (scintillation proximity assay, biotin-K Ras B fragment); assay type: biochemical; settings: at 1 × 10^-5 M
T1 construct: Rat brain protein farnesyltransferase activity is measured; from tissue; host or cells: rat brain; purified according to Reiss et al., Cell 62:81-88 (1990), steps one through three
In short: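 Rat brain enzyme, purified through three steps, in a scintillation proximity assay kit with biotin-K Ras B fragment substrate at 0.1 mM final. Value is % inhibition of farnesylation.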

| SMILES | inhibition at 10 µM [%] |
| --- | --- |
| CSCC[C@H](NC(=O)c1ccc(CNCCC2CCCCC2)cc1-c1ccccc1)C(=O)O [Example 663] | 43 |
| CSCC[C@H](NC(=O)c1ccc(CNCCc2cccs2)cc1-c1ccccc1)C(=O)O [Example 369] | 87 |
| COc1cc2c(cc1OC)C(CNCc1ccc(C(=O)N[C@@H](CCSC)C(=O)O)c(-c3ccccc3)c1)=CC(C1CCCCC1)C2 (some centres unmarked) [Example 659] | 55 |
| CCN(Cc1ccc(C(=O)N[C@@H](CCSC)C(=O)O)c(-c2ccccc2)c1)Cc1cc([N+](=O)[O-])ccc1O [Example 711] | 46 |
| CSCC[C@H](NC(=O)c1ccc(CNc2ccc3ncccc3c2)cc1-c1ccccc1)C(=O)O [Example 708] | 76 |
| CSCC[C@H](NC(=O)c1ccc(NC(=O)c2cccc(N(C)C)c2)cc1-c1ccccc1)C(=O)O [Example 752] | 58 |

same assay, conditions: at 1 × 10^-6 M

| SMILES | % inhibition of farnesyltransferase [%] |
| --- | --- |
| CSCC[C@H](NC(=O)c1ccc(S(=O)(=O)NC2CCN(Cc3ccccc3)CC2)cc1-c1ccccc1C)C(=O)O [Example 773] | 41 |
| CCCCON(CCC1CCCCC1)Cc1ccc(C(=O)N[C@@H](CCS(C)(=O)=O)C(=O)O)c(-c2ccccc2C)c1 [Example 298] | 43 |
| CSCC[C@H](NC(=O)c1ccc(/C=C/c2ccccc2)cc1-c1ccccc1C)C(=O)O [Example 791] | 53 |
| CSCC[C@H](NC(=O)c1ccc(CN(C2CC2)C2(CC3CCCCC3)CCC2)cc1-c1ccccc1C)C(=O)O [Example 330] | 98 |
| CSCC[C@H](NC(=O)c1ccc(CN2CCCC(OCc3ccccc3)C2)cc1-c1ccccc1C)C(=O)O (some centres unmarked) [Example 989] | 88 |
| CSCC[C@H](NC(=O)c1ccc(COC2CCN(Cc3ccccc3)CC2)cc1-c1ccccc1C)C(=O)O [Example 807] | 90 |
| CSCC[C@H](NC(=O)c1ccc(CN2CCN(c3ccccc3)CC2)cc1-c1ccccc1C)C(=O)O [Example 867] | 71 |
| CSCC[C@H](NC(=O)c1ccc(CN2CCN(C(=O)OC(C)(C)C)CC2)cc1-c1ccccc1C)C(=O)O [Example 866] | 62 |
| CSCC[C@H](NC(=O)c1ccc(Sc2ccc3ccccc3c2)cc1-c1ccccc1C)C(=O)O [Example 497] | 94 |
| CSCC[C@H](NC(=O)c1ccc(CSCc2ccccc2)cc1-c1ccccc1C)C(=O)[O-].[Li+] [Example 554] | 96 |
| CSCC[C@H](NC(=O)c1cc(Cc2ccccc2)c(COCc2ccco2)cc1-c1ccccc1C)C(=O)O [Example 924] | 77 |
| COc1ccc(CCOCc2ccc(C(=O)N[C@@H](CCSC)C(=O)O)c(-c3ccccc3C)c2)cc1 [Example 937] | 95 |
| CSCC[C@H](NC(=O)c1ccc(CC(Cc2ccccc2)c2ccccc2)cc1-c1ccccc1C)C(=O)[O-].[Li+] (some centres unmarked) [Example 572] | 91 |
| CSCC[C@H](NC(=O)c1ccc(/C=C/c2ccc3ccccc3c2)cc1-c1ccccc1C)C(=O)O [Example 465] | 92 |
| CSCCC(NC(=O)c1ccc(CNC(CO)c2ccccc2)cc1-c1ccccc1)C(=O)O (centres unmarked) [Example 658] | 73 |
| CSCC[C@H](NC(=O)c1ccc(CN(C(C)C)C2(CC3CCCCC3)CCCC2)cc1-c1ccccc1C)C(=O)O [Example 344] | 95 |

same assay, conditions: at 1 × 10^-6 M; read-out: % inhibition of farnesyltransferase

| SMILES | inhibition at 1 µM [%] |
| --- | --- |
| CSCC[C@H](NC(=O)c1ccc(CNCC(O)CO)cc1-c1ccccc1)C(=O)O (some centres unmarked) [Example 632] | 43 |
| CSCC[C@H](NC(=O)c1ccc(NC(=O)[C@@H](N)COCc2ccccc2)cc1-c1ccccc1)C(=O)O [Example 503, N-[4-(N-2-amino-3-benzyloxypropionyl)amino-2-phenylbenzoyl]methionine] | 57 |
| CCSC[C@H](CC1CCCCC1)NCc1ccc(C(=O)N(C)[C@@H](CCSC)C(=O)O)c(-c2ccccc2C)c1 [Example 765, lithium salt] | 76 |
| CSCC[C@H](NC(=O)c1ccc(CN(Cc2ccccc2)Cc2ccco2)cc1-c1ccccc1C)C(=O)O [Example 504, N-[4-N-(furan-2-ylmethyl)-N-benzylaminomethyl-2-(2-methylphenyl)benzoyl]methionine lithium salt] | 90 |
| CSCC[C@H](NC(=O)c1ccc(CNCCS)cc1-c1ccccc1)C(=O)O [Example 626] | 61 |
| CSCCC(NC(=O)c1ccc(NC(=O)C2CCCNC2)cc1-c1ccccc1)C(=O)O (centres unmarked) [Example 231, [4-(3-piperidinecarboxyamino)-2-phenylbenzoyl]methionine hydrochloride] | 50 |
| CSCC[C@H](NC(=O)c1ccc(CN(CCC2CCCCC2)C(=O)N(C)C)cc1-c1ccccc1C)C(=O)O [Example 610, N-[4-(N-(N,N-dimethylaminocarbonyl)-N-(2-cyclohexylethyl)aminomethyl)-2-(2-methylphenyl)benzoyl]methionine] | 94 |
| CSCC[C@H](NC(=O)c1ccc(CNc2ccccc2C(N)=O)cc1-c1ccccc1)C(=O)O [Example 644] | 54 |
| CSCC[C@H](NC(=O)c1ccc(CNc2ccc(S(=O)(=O)Nc3onc(C)c3C)cc2)cc1-c1ccccc1C)C(=O)O [Example 726] | 81 |
| CSCC[C@H](NC(=O)c1ccc(NC(=O)Cc2nccs2)cc1-c1ccccc1)C(=O)O [Example 163, [4-(thiazol-2-ylmethylcarbonyl)amino-2-phenylbenzoyl]methionine] | 18 |
| CSCC[C@H](NC(=O)c1ccc(CNc2ccccc2N2CCCCC2)cc1-c1ccccc1)C(=O)O [Example 673] | 59 |

same assay, conditions: at 1 × 10^-7 M

| SMILES | % inhibition of farnesyltransferase [%] |
| --- | --- |
| CSCC[C@H](NC(=O)c1ccc(C#Cc2cncnc2)cc1-c1ccccc1C)C(=O)[O-].[Li+] [Example 493] | 51 |
| COc1cccc(-c2ccc(COCc3ccc(C(=O)N[C@@H](CCSC)C(=O)[O-])c(-c4ccccc4C)c3)o2)c1.[Li+] [Example 442] | 88 |
| CSCC[C@H](NC(=O)c1ccc(COCCc2ccc(-c3ccc(Cl)cc3)o2)cc1-c1ccccc1C)C(=O)[O-].[Li+] [Example 536] | 79 |
| CSCC[C@H](NC(=O)c1ccc(COCc2cccc(C)c2)cc1-c1ccccc1C)C(=O)[O-].[Li+] [Example 578] | 90 |
| CSCC[C@H](NC(=O)c1ccc(COCc2ccc(-c3cccc([N+](=O)[O-])c3)o2)cc1-c1ccccc1C)C(=O)[O-].[Li+] [Example 440] | 92 |
| CSCC[C@H](NC(=O)c1ccc(COCc2cnc(-c3ccc(Cl)cc3)o2)cc1-c1ccccc1C)C(=O)[O-].[Li+] [Example 894] | 89 |
| CCCCC(OCc1ccc(C(=O)N[C@@H](CCSC)C(=O)[O-])c(-c2ccccc2C)c1)c1ccco1.[Li+] (some centres unmarked) [Example 825] | 79 |
| CSCC[C@H](NC(=O)c1ccc(COCCC2CCCCC2)cc1-c1ccccc1C)C(=O)[O-].[Li+] [Example 594] | 95 |
| CSCC[C@H](NC(=O)c1ccc(CSc2ccccc2C(C)C)cc1-c1ccccc1C)C(=O)O [Example 739] | 83 |
| CSCC[C@H](NC(=O)c1ccc(CSc2ncnc3[nH]ncc23)cc1-c1ccccc1C)C(=O)O [Example 746] | 84 |
| CSCC[C@H](NC(=O)c1ccc(CCc2ccccc2Cc2ccccc2)cc1-c1ccccc1C)C(=O)O [Example 458] | 87 |

same assay, conditions: at 1 × 10^-7 M; read-out: % inhibition of farnesyltransferase

| SMILES | inhibition at 0.1 µM [%] |
| --- | --- |
| CSCC[C@H](NC(=O)c1ccc(CNc2ccc(N3CCOCC3)cc2)cc1-c1ccccc1C)C(=O)O [Example 863, N-[4-N-(4-morpholin-1-ylphenyl)aminomethyl-2-(2-methylphenyl)benzoyl]methionine] | 72 |
| CSCC[C@H](NC(=O)c1ccc(CN[C@H](CCCC(C)C)CC2CCCCC2)cc1-c1ccccc1C)C(=O)O [Example 527, N-[4-N-(1-Cyclohexyl-6-methylheptan-2-yl)aminomethyl-2-(2-methylphenyl)benzoyl]methionine lithium salt] | 97 |

same assay, conditions: at 1 × 10^-8 M

| SMILES | % inhibition of farnesyltransferase [%] |
| --- | --- |
| CSCC[C@H](NC(=O)c1ccc(COCc2cnc(-c3ccc(Cl)cc3)s2)cc1-c1ccccc1C)C(=O)[O-].[Li+] [Example 901] | 84 |
| CSCC[C@H](NC(=O)c1ccc(/C=C/c2ccc(Oc3cccc(Cl)c3)cc2)cc1-c1ccccc1C)C(=O)O [Example 858] | 60 |

same assay, conditions: at 1 × 10^-8 M; read-out: % inhibition of farnesyltransferase

| SMILES | inhibition at 0.01 µM [%] |
| --- | --- |
| CSCC[C@H](NC(=O)c1ccc(CN(Cc2ccc3c(c2)OCO3)c2cncnc2)cc1-c1ccccc1C)C(=O)O [Example 837, lithium salt] | 91 |
| CSCC[C@H](NC(=O)c1ccc(CN(Cc2ccccc2)c2ccc(C(F)(F)F)cc2)cc1-c1ccccc1C)C(=O)O [Example 853, N-[4-(N-benzyl-N-(4-trifluoromethylphenyl)aminomethvl)-2-(2-methylphenyl)benzoyl]methionine lithium salt] | 85 |
| CCCCS(=O)(=O)N(CCCc1ccccc1)Cc1ccc(C(=O)N[C@@H](CCSC)C(=O)O)c(-c2ccccc2C)c1 [Example 927, N-[4-(N-Butanesulfonyl-N-(3-phenylpropyl)aminomethyl)-2-(2-methylphenyl)benzoyl]methionine] | 74 |
| COc1cccc(CN(Cc2ccc(C(=O)N[C@@H](CCSC)C(=O)O)c(-c3ccccc3C)c2)c2ccccc2)c1 [Example 779, N-[4-N-(N-phenyl-N-(3-methoxybenzyl)aniinomethyl)-2-(2-methylphenyl)benzoyl]methionine lithium salt] | 70 |

same assay, conditions: read-out: % inhibition of farnesyltransferase

| SMILES | inhibition at 1 µM [%] |
| --- | --- |
| CSCC[C@H](NC(=O)c1ccc(CN(Cc2ccccc2)c2ccccc2SC)cc1-c1ccccc1C)C(=O)O [Example 850, N-[4-(N-benzyl-N-(2-methylthiophenyl)aminomethyl)-2-(2-methylphenyl)benzoyl]methionine lithium salt] | 90 |
